Experimental data reported in paper PMC7180948, “New Insights into 4-Anilinoquinazolines as Inhibitors of Cardiac Troponin I–Interacting Kinase (TNNi3K)” (Molecules, 2020).

Biological target: T1, cardiac troponin I–interacting kinase (TNNi3K) (Homo sapiens, UniProt Q59H18)
T1 sequence (Q59H18 1-835): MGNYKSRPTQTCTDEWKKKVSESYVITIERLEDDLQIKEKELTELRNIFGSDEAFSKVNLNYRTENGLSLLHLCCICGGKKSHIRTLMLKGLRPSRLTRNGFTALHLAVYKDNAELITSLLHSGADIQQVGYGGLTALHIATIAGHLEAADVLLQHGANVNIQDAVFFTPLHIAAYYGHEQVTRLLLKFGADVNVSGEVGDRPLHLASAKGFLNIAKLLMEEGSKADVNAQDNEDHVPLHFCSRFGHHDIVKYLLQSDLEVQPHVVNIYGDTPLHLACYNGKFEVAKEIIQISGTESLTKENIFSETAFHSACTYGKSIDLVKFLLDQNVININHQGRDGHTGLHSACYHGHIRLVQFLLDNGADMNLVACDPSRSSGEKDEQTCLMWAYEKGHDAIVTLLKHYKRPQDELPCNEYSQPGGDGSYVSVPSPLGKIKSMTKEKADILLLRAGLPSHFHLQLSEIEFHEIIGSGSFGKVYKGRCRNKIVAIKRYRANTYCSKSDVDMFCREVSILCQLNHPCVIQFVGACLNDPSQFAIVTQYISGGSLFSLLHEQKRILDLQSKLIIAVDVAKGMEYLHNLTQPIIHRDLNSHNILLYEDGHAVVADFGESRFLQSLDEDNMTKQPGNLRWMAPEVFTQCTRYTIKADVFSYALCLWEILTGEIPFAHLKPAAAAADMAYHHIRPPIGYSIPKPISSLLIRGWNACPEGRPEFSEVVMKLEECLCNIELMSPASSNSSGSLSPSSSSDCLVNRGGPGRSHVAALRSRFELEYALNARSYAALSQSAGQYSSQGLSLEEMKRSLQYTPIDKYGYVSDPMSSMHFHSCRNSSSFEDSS
Assay: TNNi3K binding assay (Kd, n = […])

Row | Kd [µM] | Structure (SMILES)
1 | 0.12 | CNS(=O)(=O)c1cccc(Nc2ncnc3cc(OC)c(OC)cc23)c1 [compound 2, 3-((6,7-dimethoxyquinazolin-4-yl)amino)-N-methylbenzenesulfonamide]
2 | 0.09 | CNS(=O)(=O)c1ccc(N(C)C)c(Nc2ncnc3ccc(OC)cc23)c1 [compound 16, 4-(dimethylamino)-3-((6-methoxyquinazolin-4-yl)amino)-N-methylbenzenesulfonamide]
3 | 0.011 | CNS(=O)(=O)c1ccc(N(C)C)c(Nc2ncnc3cc(OC)ccc23)c1 [compound 17, 4-(dimethylamino)-3-((7-methoxyquinazolin-4-yl)amino)-N-methylbenzenesulfonamide]
4 | 6.2 | COc1cc2ncnc(Nc3ccccc3N(C)C)c2cc1OC [compound 20, N^1-(6,7-dimethoxyquinazolin-4-yl)-N^2,N^2-dimethylbenzene-1,2-diamine]
